Source: ChEMBL document CHEMBL1201862, “PubChem BioAssay data set” (2004)
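Method: 48-hour compound exposure of cells in 96-well plates, five concentrations, linear interpolation of endpoints. At the GI50, growth is halved.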 Calls of active or inactive are those of the source. Cut-off read from the data, not from the text of the source: active = GI50 up to about 1.1 µM and inactive = higher. Starred links: 1 amine or outer side, 2 acyl side, 3 side chain; linkers in the order of their positions; H or OH if unused. Non-standard residues stand in square brackets, D forms with d. Residues, ends and D or L forms follow the SMILES beside them. *: point of attachment. X34 = CC(=O)N(C)SCC(N[*:1])C(=O)[*:2]; Cbz = O=C(OCc1ccccc1)*; Bn = c1ccc(C*)cc1; For = O=C*

What was measured:
Assay in all cases: NCI-60 cell line screen, 48 h
OVCAR-4 = test system: OVCAR-4
MDA-N = test system: MDA-N
DU-145 = test system: DU-145
SNB-75 = test system: SNB-75
MDA-MB-435 = test system: MDA-MB-435
IGROV-1 = test system: IGROV-1
MDA-MB-231 = test system: MDA-MB-231
HCT-15 = test system: HCT-15
SK-MEL-5 = test system: SK-MEL-5
PC-3 = test system: PC-3
SK-MEL-28 = test system: SK-MEL-28
Malme-3M = test system: Malme-3M
A498 = test system: A498
A549 = test system: A549
TK-10 = test system: TK-10
SF-539 = test system: SF-539
RPMI-8226 = test system: RPMI-8226
T47D = test system: T47D
HT-29 = test system: HT-29
SR = test system: SR

Measured: GI50

CC(=O)c1ccc(O)c(CN(C2CCCCC2)C2CCCCC2)c1O
> 100 µM: HCT-15
inactive: OVCAR-4 > 100 µM | MDA-N > 100 µM | DU-145 > 100 µM | SNB-75 2.19 µM | MDA-MB-435 > 100 µM | IGROV-1 > 100 µM | MDA-MB-231 > 100 µM | SK-MEL-5 > 100 µM | PC-3 > 100 µM | SK-MEL-28 > 100 µM | Malme-3M > 100 µM | A498 > 100 µM | A549 > 100 µM | TK-10 74.3 µM | SF-539 > 100 µM | RPMI-8226 > 100 µM | T47D 21.6 µM | HT-29 > 100 µM

CCOC(=O)[C@@H]1C[C@H]1c1ccc(O)c(O)c1
33.6 µM: HCT-15
inactive: MDA-N 12.7 µM | DU-145 10.1 µM | MDA-MB-435 10.2 µM | IGROV-1 24.4 µM | SR 45.3 µM | MDA-MB-231 23.2 µM | SK-MEL-5 16.6 µM | PC-3 14.6 µM | SK-MEL-28 25.4 µM | Malme-3M 31.8 µM | A549 41.3 µM | TK-10 20.7 µM | SF-539 91 µM | RPMI-8226 30.9 µM | T47D 30.1 µM | HT-29 55.5 µM

COC(=O)CNC(=O)CCSc1nnc(COc2ccc(Cl)cc2)n1-c1ccccc1
74.6 µM: HCT-15
inactive: OVCAR-4 61.1 µM | MDA-N 16.1 µM | DU-145 20.9 µM | SNB-75 20.4 µM | MDA-MB-435 24.1 µM | IGROV-1 26.2 µM | SR > 10 µM | MDA-MB-231 21 µM | PC-3 52 µM | SK-MEL-28 23.7 µM | Malme-3M 25.8 µM | A498 > 100 µM | A549 68.2 µM | TK-10 17.5 µM | SF-539 91.8 µM | T47D 25.9 µM | HT-29 27.5 µM

CC(C)C(N)(C(=O)O)c1ccccc1 (configuration not stated)
inactive: OVCAR-4 > 100 µM | MDA-N > 100 µM | DU-145 > 100 µM | SNB-75 > 100 µM | MDA-MB-435 > 100 µM | IGROV-1 > 100 µM | SR > 100 µM | MDA-MB-231 > 100 µM | SK-MEL-5 > 100 µM | PC-3 > 100 µM | SK-MEL-28 > 100 µM | Malme-3M > 100 µM | A498 > 100 µM | A549 > 100 µM | TK-10 > 100 µM | RPMI-8226 > 100 µM | T47D > 100 µM | HT-29 > 100 µM
> 100 µM: HCT-15

CC1(C)C=C(/C=N/Nc2ccc(Br)cc2)C(C#N)=C(O)C1(C#N)C#N
inactive: OVCAR-4 40 µM | MDA-N 42.2 µM | DU-145 66.7 µM | SNB-75 66.4 µM | MDA-MB-435 39.7 µM | IGROV-1 81.8 µM | SR 26.4 µM | MDA-MB-231 39.5 µM | SK-MEL-5 > 100 µM | PC-3 21.2 µM | SK-MEL-28 81.8 µM | Malme-3M 89.7 µM | A549 39.2 µM | TK-10 83.6 µM | SF-539 55.2 µM | RPMI-8226 38.5 µM | T47D 40.9 µM | HT-29 40.8 µM

O=C(COc1ccccc1)N(C(=O)N1CCN(c2ccccc2)CC1)S(=O)(=O)c1ccccc1
47.5 µM: HCT-15
inactive: OVCAR-4 > 100 µM | MDA-N 62.4 µM | DU-145 98.6 µM | SNB-75 33.9 µM | MDA-MB-435 > 100 µM | SR 21.7 µM | MDA-MB-231 52 µM | SK-MEL-5 > 100 µM | PC-3 50.5 µM | SK-MEL-28 > 100 µM | Malme-3M > 100 µM | A498 > 100 µM | A549 > 100 µM | TK-10 > 100 µM | SF-539 > 100 µM | T47D 34.8 µM | HT-29 43.5 µM

Cc1cc2ccc(N)nc2nc1O
inactive: MDA-N > 100 µM | DU-145 > 100 µM | SNB-75 > 100 µM | MDA-MB-435 > 100 µM | IGROV-1 > 100 µM | SR > 100 µM | MDA-MB-231 > 100 µM | SK-MEL-5 > 100 µM | PC-3 > 100 µM | Malme-3M > 100 µM | A549 > 100 µM | TK-10 > 100 µM | SF-539 > 100 µM | RPMI-8226 > 100 µM | T47D > 100 µM | HT-29 > 100 µM
> 100 µM: HCT-15

CCc1ncnc2cc(OCC3CO3)c(OC)cc12 (configuration not stated)
3.09 µM: HCT-15
inactive: OVCAR-4 6.38 µM | MDA-N 5.94 µM | DU-145 4.15 µM | SNB-75 17.3 µM | MDA-MB-435 5.12 µM | MDA-MB-231 7.24 µM | SK-MEL-5 6.34 µM | PC-3 7.31 µM | SK-MEL-28 11.7 µM | Malme-3M 12.3 µM | A498 21.3 µM | A549 4.49 µM | TK-10 10.8 µM | SF-539 5.98 µM | T47D 20.9 µM | HT-29 4.83 µM
active: IGROV-1 1.06 µM | SR 0.209 µM

O=CN(CCN1CCCC1)C1CCc2cc(Cl)c(Cl)cc2C1 (configuration not stated)
15.8 µM: HCT-15
inactive: OVCAR-4 18.7 µM | MDA-N 10 µM | DU-145 34.7 µM | MDA-MB-435 15 µM | IGROV-1 22.1 µM | SR 23.9 µM | MDA-MB-231 11 µM | SK-MEL-5 27.2 µM | PC-3 11.4 µM | Malme-3M 13.6 µM | A549 7.71 µM | TK-10 16.3 µM | SF-539 30.5 µM | RPMI-8226 20.6 µM | T47D 11.1 µM | HT-29 5.75 µM

CCOP(=O)(OCC)C(C)(CC)NC1=NC(C(F)(F)F)(C(F)(F)F)NC(=O)N1 (configuration not stated)
inactive: OVCAR-4 > 100 µM | MDA-N > 100 µM | DU-145 > 100 µM | SNB-75 > 100 µM | MDA-MB-435 > 100 µM | IGROV-1 70.1 µM | SR > 100 µM | MDA-MB-231 > 100 µM | SK-MEL-5 > 100 µM | PC-3 > 100 µM | SK-MEL-28 > 100 µM | Malme-3M > 100 µM | A549 > 100 µM | TK-10 > 100 µM | SF-539 > 100 µM | RPMI-8226 > 100 µM | T47D 82 µM | HT-29 > 100 µM
> 100 µM: HCT-15

COC(=O)C1OC(O[C@H]2CC[C@]3(C)[C@H]4CC=C5[C@@H]6CC(C)(C)CC[C@]6(C(=O)OC)CC[C@@]5(C)[C@]4(C)CC[C@H]3C2(C)C)C(O)C(O)C1O (some centres not stated)
13.9 µM: HCT-15
inactive: OVCAR-4 14.4 µM | MDA-N 17 µM | DU-145 14.5 µM | SNB-75 17.1 µM | MDA-MB-435 16.5 µM | IGROV-1 18 µM | SR 3.72 µM | MDA-MB-231 4.45 µM | SK-MEL-5 18.2 µM | PC-3 15.1 µM | SK-MEL-28 18.5 µM | Malme-3M 21 µM | A498 19.8 µM | A549 7.14 µM | RPMI-8226 20.1 µM | T47D 19.7 µM | HT-29 10.5 µM

SCCCSCCSCCCSCCS
> 100 µM: HCT-15
inactive: OVCAR-4 > 100 µM | MDA-N > 100 µM | DU-145 > 100 µM | SNB-75 45.6 µM | MDA-MB-435 > 100 µM | IGROV-1 > 100 µM | SR 55.7 µM | MDA-MB-231 70.6 µM | SK-MEL-5 91.6 µM | PC-3 65.8 µM | SK-MEL-28 > 100 µM | A549 > 100 µM | SF-539 > 100 µM | T47D > 100 µM | HT-29 > 100 µM

COc1cc2c(cc1OCCCCOc1cc3c(cc1OC)C(=O)N1CCC[C@H]1C(=O)N3)N=C[C@@H]1CCCN1C2=O
12.2 µM: HCT-15
inactive: OVCAR-4 13.1 µM | MDA-N 7.28 µM | DU-145 17.2 µM | SNB-75 4.12 µM | MDA-MB-435 4.2 µM | IGROV-1 8.57 µM | SR 2.17 µM | MDA-MB-231 3.11 µM | SK-MEL-5 4 µM | PC-3 6.05 µM | SK-MEL-28 14.3 µM | Malme-3M 9.79 µM | A498 6.71 µM | A549 18.3 µM | TK-10 12.9 µM | RPMI-8226 1.57 µM | T47D 5.52 µM | HT-29 16.6 µM

CC(=O)N(C)SCC(NC(=O)C(Cc1ccccc1)NC(=O)OCc1ccccc1)C(=O)NC(Cc1ccccc1)C(=O)NC(Cc1cn(C=O)c2ccccc12)C(=O)NC(CCCCNC(=O)OCc1ccccc1)C(=O)NC(C(=O)NC(CSN(C)C(C)=O)C(=O)NC(C(N)=O)C(C)OCc1ccccc1)C(C)OCc1ccccc1 (configuration not stated) (Cbz-F[X34]FW(For)K(Cbz)T(Bn)[X34]T(Bn)-NH2; configuration not given here)
> 100 µM: HCT-15
inactive: OVCAR-4 54.2 µM | MDA-N > 100 µM | DU-145 > 100 µM | SNB-75 11.3 µM | MDA-MB-435 > 100 µM | IGROV-1 68.9 µM | SR > 100 µM | MDA-MB-231 14.7 µM | SK-MEL-5 > 100 µM | PC-3 > 100 µM | SK-MEL-28 > 100 µM | Malme-3M 40.4 µM | A549 > 100 µM | TK-10 20.6 µM | SF-539 44 µM | RPMI-8226 > 100 µM | T47D > 100 µM | HT-29 > 100 µM

CNc1c2c(c3nc4ccccc4c4c3c1N=C4)NCCC2=O [PLAKINIDINE A]
inactive: OVCAR-4 7.83 µM | MDA-N 7.35 µM | DU-145 > 10 µM | SNB-75 2.87 µM | MDA-MB-435 5.79 µM | IGROV-1 4.42 µM | MDA-MB-231 3.86 µM | SK-MEL-5 6.55 µM | PC-3 3.46 µM | SK-MEL-28 > 10 µM | Malme-3M 4.65 µM | A498 2.67 µM | A549 3.52 µM | TK-10 8.51 µM | SF-539 3.9 µM | RPMI-8226 2.57 µM | T47D 3.78 µM | HT-29 2.23 µM
6.4 µM: HCT-15
